This is an account of results in article PMC4232510, “Identification of Functionally Important Residues of the Rat P2X4 Receptor by Alanine Scanning Mutagenesis of the Dorsal Fin and Left Flipper Domains” (PLoS ONE, 2014).

In one assay the target is T1, wild type (WT) rP2X4R (Rattus norvegicus, UniProt P51577).
T1 construct: expressed in transfected cells; host or cells: HEK293T
T1 sequence (P51577 1-388): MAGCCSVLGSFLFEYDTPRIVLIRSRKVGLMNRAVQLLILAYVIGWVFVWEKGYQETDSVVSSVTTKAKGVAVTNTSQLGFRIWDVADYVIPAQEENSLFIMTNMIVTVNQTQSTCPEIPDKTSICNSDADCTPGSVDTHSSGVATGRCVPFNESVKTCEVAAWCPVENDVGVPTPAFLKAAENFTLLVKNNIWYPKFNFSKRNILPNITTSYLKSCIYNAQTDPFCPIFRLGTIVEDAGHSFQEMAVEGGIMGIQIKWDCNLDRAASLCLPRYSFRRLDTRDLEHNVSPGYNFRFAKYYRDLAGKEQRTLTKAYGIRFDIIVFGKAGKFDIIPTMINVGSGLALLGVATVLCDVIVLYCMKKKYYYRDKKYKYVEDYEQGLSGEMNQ
Description: whole-cell patch clamp, HEK293T cells expressing WT receptor. Format: cell-based. To be noted: for relative responsiveness: 100 µM agonist 2 s, relative to ATP (100%); for EC50: naïve receptors, 2–5 s application. How it is done:
To express the recombinant channels, we used human embryonic kidney (HEK) 293T cells (American Type Culture Collection, Rockville, MD, USA) grown in Dulbecco modified Eagle’s medium (Thermo Fisher Scientific, Waltham, MA) supplemented with 10% fetal bovine serum (Sigma-Aldrich, St Louis, MO), 50 U/ml penicillin and 50 µg/ml streptomycin (both Thermo Fisher Scientific, Waltham, MA) in a humidified 5% CO2 and 95% air at 37°C. Cells were cultured in 75 cm^2 plastic culture flasks (NUNC, Rochester, NY) for 36–72 hours until reaching 80–95% confluence. Before the day of transfection, the cells were plated on 35 mm culture dishes (Sarstedt, Newton, NC) and incubated at 37°C for at least 24 h. Transfection was done using 2 µg of either WT or mutant receptor DNA with 2 µl of JetPrime reagent in 2 ml of Dulbecco modified Eagle’s medium, according to manufacturer’s instructions (PolyPlus-transfection, Illkirch, France). Transfected cells were identified by the fluorescence signal of EGFP using the Olympus IX71 inverted research microscope with fluorescence illuminators (Model IX71; Olympus, Melville, NY).
cDNAs encoding the sequences of the rP2X4 and mutated subunits were subcloned into the pIRES2-EGFP vector (Clontech, Mountain View, CA, USA). To generate the mutants, oligonucleotides (synthesized and provided by VBC-Genomics, Vienna, Austria or Sigma Aldrich) containing specific mutagenesis mismatches were introduced into the rP2X4/pIRES2-EGFP template using PfU Ultra DNA polymerase (Thermo Fisher Scientific). A High-Speed Plasmid Mini Kit (Geneaid, Taipei City, Taiwan) was used to isolate the plasmids for transfection. Dye terminator cycle sequencing (ABI PRISM 3100, Applied Biosystems, Foster City, CA) was used to identify and verify the presence of the mutations. The sequencing was performed by the DNA Sequencing Laboratory, Institute of Microbiology, ASCR, Prague.
ATP-induced currents were recorded from whole cells clamped to −60 mV using an Axopatch 200B patch-clamp amplifier (Axon Instruments, Union City, CA). The recordings were captured and stored using the Digidata 1322A and pClamp9 software package (Axon Instruments). During the experiments, the cell culture was perfused with a bath solution containing: 142 mM NaCl, 3 mM KCl, 2 mM CaCl2, 1 mM MgCl2, 10 mM 4-(2-Hydroxyethyl)piperazine-1-ethanesulfonic acid (HEPES) and 10 mM D-glucose, adjusted to pH 7.3 with 1 M NaOH. The patch electrodes were filled with a solution containing: 154 mM CsCl, 11 mM EGTA and 10 mM HEPES, adjusted to pH 7.2 with 1.6 M CsOH. The whole-cell configuration was used to abolish the influence of natively present metabotropic receptors for ATP and we used intracellular cesium to block any kind of possible background potassium conductance. Potency of ATP was measured based on the activation of naïve (not previously stimulated) receptors using a short (2–5 s) application of various concentrations of ATP. The results are expressed as molar concentration of ATP required to produce 50% of the maximal response (EC50). One or two responses were recorded from one cell, if not otherwise stated, and responses from different cells were pooled. The maximum current amplitude (Imax) was measured in response to application of supramaximal concentrations (100–1000 µM) of ATP. Responsiveness to P2XR agonists 2-MeS-ATP, ATPγS, BzATP, and α,β-meATP, all applied in 100 µM concentration, was expressed as percentage of response in comparison to 100 µM ATP treatment for selected mutants. In all mutants, the whole cell currents were also measured in the presence of 3 µM IVM, which was dissolved in dimethyl sulfoxide, stored in stock solutions at 10 mM, and diluted to required concentrations in bath solution in the day of experiment. The control and drug containing solutions were applied via a rapid (exchange time 30–40 ms) perfusion system (RSC-200, BIOLOGIC, Claix, France). All other chemicals are from Sigma-Aldrich. […]
For orientation: The patch-clamp technique gives a direct electrical read-out from membranes.

The target in the next assay is T2, rP2X4R R282A mutant (Rattus norvegicus, UniProt P51577, R282A).
T2 construct: expressed in transfected cells; host or cells: HEK293T
T2 sequence (P51577 1-388 R282A): T1 sequence (P51577 1-388) with R282A
Description: whole-cell patch clamp, HEK293T cells expressing mutant. In kind it is cell-based. The conditions noted are these: for relative responsiveness: 100 µM agonist 2 s, relative to ATP (100%).

Setting [1] is: 100 µM ATP 60 s, biexponential fit.
Where [2] appears, read: contribution of τdes2, 100 µM ATP 60 s.
Where [3] appears, read: decay after removal of 1 or 3 µM ATP, 3 µM IVM.

Where a chain is given by its changes, count along the chain named. Several values for one entry are separate records, joined by “and”; a condition that tells them apart may be missing. Equal entries are not always repeated.

One may read the EC50 as the concentration that produces a half-maximal response. A lower EC50 goes with greater potency. As for “2′(3′-O-(4-Benzoylbenzoyl)adenosine 5′-triphosphate [BzATP]”, at wild type (WT) rP2X4R, the relative responsiveness was 38% and 38.2±3.4%; the response was half-maximal at 11.1 ± 2.9 µM (EC50). For the same compound, the relative responsiveness at rP2X4R R282A mutant is recorded as 25.7±3.7%.
Turning to `CSc1nc(N)c2ncn([C@@H]3O[C@H](COP(=O)(O)OP(=O)(O)OP(=O)(O)O)[C@@H](O)[C@H]3O)c2n1` [2-MeS-ATP, 2-(Methylthio)adenosine 5′-triphosphate], at wild type (WT) rP2X4R, the relative responsiveness is 67% and 67.3±4.6%; a half-maximal effect (EC50) was put at 7.9 ± 1 µM. The compound further displayed a relative responsiveness on rP2X4R R282A mutant of 55.1±12.9%.
Consider `Nc1ncnc2c1ncn2[C@@H]1O[C@H](COP(=O)(O)OP(=O)(O)OP(=O)(O)O)[C@@H](O)[C@H]1O` [ATP], for which the τdes1 at wild type (WT) rP2X4R (setting [1]) was 1.3 ± 0.2 s; at rP2X4R R282A mutant (setting [1]) it was 4.0 ± 0.3 s. In addition, the figures for the τdes2 at wild type (WT) rP2X4R (setting [1]) and at rP2X4R R282A mutant (setting [1]) were 9.0 ± 0.7 s and 14.7 ± 2.0 s, respectively. This compound also yielded a relative responsiveness at wild type (WT) rP2X4R of 100%. The Imax on wild type (WT) rP2X4R (100–1000 µM ATP) is listed as 2.2 ± 0.2 nA; at rP2X4R R282A mutant (100–1000 µM ATP) it was 0.7 ± 0.1 nA. Moreover, the “Imax+IVM” value on wild type (WT) rP2X4R (ATP after 3 µM IVM 4-6 min) was found to be 3.4 ± 0.3 nA; on rP2X4R R282A mutant (ATP after 3 µM IVM 4-6 min), 4.5 ± 0.5 nA. Further, the figures for the “A2 /(A1+A2)” value on wild type (WT) rP2X4R (setting [2]) and at rP2X4R R282A mutant (setting [2]) were 63 ± 3% and 64 ±14%, respectively. Further, the “τoff +IVM” value on wild type (WT) rP2X4R (setting [3]) was 21 ± 1.0 s; on rP2X4R R282A mutant (setting [3]), 7.0 ± 0.6 s. Moreover, the EC50 at wild type (WT) rP2X4R is 2.3 ± 0.4 µM; on rP2X4R R282A mutant (naïve receptors, 2–5 s application), 23 ± 8 µM. Besides, the τdes worked out at 6.0 ± 0.4 s at wild type (WT) rP2X4R (weighted, 100 µM ATP 60 s) and 14 ± 1.0 s at rP2X4R R282A mutant (weighted, 100 µM ATP 60 s). Further, at rP2X4R R282A mutant, the “EC50 rightward shift compared to WT” value is “approximately 10 fold”.
For `Nc1ncnc2c1ncn2[C@@H]1O[C@H](CO[P@](=O)(O)O[P@](=O)(O)O[P@@](=O)(O)S)[C@@H](O)[C@H]1O` [ATPγS, Adenosine 5′-(γ-thio)triphosphate], on wild type (WT) rP2X4R, the relative responsiveness is 50% and 49.6±3.5%; the EC50 came to 8.4 ± 1.8 µM. For the same compound, the relative responsiveness at rP2X4R R282A mutant is given as 45.5±5.2%.
In the case of `CC[C@H](C)[C@H]1O[C@]2(CC[C@@H]1C)C[C@@H]1C[C@@H](C/C=C(\C)[C@@H](O[C@H]3C[C@H](OC)[C@@H](O[C@H]4C[C@H](OC)[C@@H](O)[C@H](C)O4)[C@H](C)O3)[C@@H](C)/C=C/C=C3\CO[C@@H]4[C@H](O)C(C)=C[C@@H](C(=O)O1)[C@]34O)O2` [IVM, ivermectin], the “Fold incr. Imax” value on wild type (WT) rP2X4R (3 µM IVM 4-6 min vs IVM-untreated) is listed as 1.7 ± 0.2 fold.
As for `Nc1ncnc2c1ncn2C1OC(COP(=O)(O)CP(=O)(O)OP(=O)(O)O)C(O)C1O` (stereo not drawn) [α,β-meATP, α,β-methyleneadenosine 5′-triphosphate], the relative responsiveness at wild type (WT) rP2X4R is 32% and 31.8±3.3%; on rP2X4R R282A mutant, 27.3±7.9%. Moreover, the EC50 on wild type (WT) rP2X4R was 62 ± 18 µM.
